17 compounds from ChEMBL document CHEMBL1201862, “PubChem BioAssay data set” (2004) can be followed below.

Assay [1] addresses T1, Heat shock factor protein 1 (Mus musculus, UniProt P38532).
T1 sequence (P38532 whole entry): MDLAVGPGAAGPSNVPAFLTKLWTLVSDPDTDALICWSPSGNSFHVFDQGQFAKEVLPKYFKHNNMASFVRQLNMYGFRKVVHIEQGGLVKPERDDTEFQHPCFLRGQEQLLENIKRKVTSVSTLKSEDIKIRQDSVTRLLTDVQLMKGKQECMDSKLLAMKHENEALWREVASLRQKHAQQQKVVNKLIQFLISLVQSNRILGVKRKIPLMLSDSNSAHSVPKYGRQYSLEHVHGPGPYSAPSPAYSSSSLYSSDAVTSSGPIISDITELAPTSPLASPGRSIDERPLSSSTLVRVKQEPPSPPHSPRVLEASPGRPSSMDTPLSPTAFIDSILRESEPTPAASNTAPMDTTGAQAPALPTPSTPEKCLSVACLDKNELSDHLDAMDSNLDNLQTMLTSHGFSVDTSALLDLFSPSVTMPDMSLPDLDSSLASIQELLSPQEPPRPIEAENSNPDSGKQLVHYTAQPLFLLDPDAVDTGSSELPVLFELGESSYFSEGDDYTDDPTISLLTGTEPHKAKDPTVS
Kind of assay: decrease of HSF1-responsive luciferase luminescence – cell-based, NIH3T3, dose retest, confirmation (AID 2382).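 Also: NIH3T3 fibroblasts with HSF1-driven luciferase reporter stressed by proteasome inhibitor MG132; luminescence from HSF1-driven luciferase expression after 8 hours of MG132 stress.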 In kind it is functional.

Assay [2] can be described thus: THP-1 cell cytotoxicity, dose response, cytotoxicity control for non-replicating M. tuberculosis project (AID 489025). Format: functional.
Assay [3] relates to INS1. Kind of assay: INS-1E survival protection against cytokine death – cell-based, luminescence, retest, dose response (AID 449756).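 Also: cell death triggered by IL-1 beta plus TNF-alpha plus IFN-gamma mixture; protective hits raise ATP signal compared with cytokine alone wells.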 In kind it is functional. To be noted: Rattus norvegicus.
Assay [4] is described as follows: cells. In kind it is functional.
The target of assay [5] is Kallikrein-7 (Homo sapiens, UniProt P49862). Kind of assay: Fluorescence Intensity-based biochemical primary high throughput dose response assay to identify activators of kallikrein-7 (K7) zymogen.
Sequence of Kallikrein-7 (P49862 whole entry): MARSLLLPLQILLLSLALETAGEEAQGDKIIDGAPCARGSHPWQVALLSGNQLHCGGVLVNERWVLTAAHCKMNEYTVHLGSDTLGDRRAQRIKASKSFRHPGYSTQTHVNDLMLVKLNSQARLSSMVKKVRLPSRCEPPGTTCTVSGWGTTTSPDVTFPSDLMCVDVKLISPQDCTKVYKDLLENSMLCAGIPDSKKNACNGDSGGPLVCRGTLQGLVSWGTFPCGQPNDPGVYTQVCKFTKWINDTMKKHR
Assay [6] deals with T2, Mannose-6-phosphate isomerase (Homo sapiens, UniProt P34949).
T2 sequence (P34949 whole entry): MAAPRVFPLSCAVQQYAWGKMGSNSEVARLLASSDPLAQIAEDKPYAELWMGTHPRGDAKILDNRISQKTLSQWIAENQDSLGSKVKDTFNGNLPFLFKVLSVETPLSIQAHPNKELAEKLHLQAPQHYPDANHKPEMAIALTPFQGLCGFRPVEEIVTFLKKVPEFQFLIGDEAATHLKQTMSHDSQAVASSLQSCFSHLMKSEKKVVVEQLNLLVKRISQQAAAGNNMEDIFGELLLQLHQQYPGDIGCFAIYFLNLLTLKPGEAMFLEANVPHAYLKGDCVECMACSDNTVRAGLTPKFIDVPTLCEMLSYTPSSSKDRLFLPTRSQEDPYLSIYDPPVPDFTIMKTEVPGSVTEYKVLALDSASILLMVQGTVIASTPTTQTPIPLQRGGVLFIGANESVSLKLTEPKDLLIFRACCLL
The experiment in a line: MPI inhibition at elevated mannose 6-phosphate – biochemical, fluorescence intensity, high mannose 6-phosphate, primary screen (AID 1220).

In assay [7] the target is Luciferin 4-monooxygenase (Photinus pyralis, UniProt P08659). The experiment in a line: inhibition of purified Photinus pyralis luciferase – biochemical, luminescence, dose response (AID 1891).
Sequence of Luciferin 4-monooxygenase (P08659 whole entry): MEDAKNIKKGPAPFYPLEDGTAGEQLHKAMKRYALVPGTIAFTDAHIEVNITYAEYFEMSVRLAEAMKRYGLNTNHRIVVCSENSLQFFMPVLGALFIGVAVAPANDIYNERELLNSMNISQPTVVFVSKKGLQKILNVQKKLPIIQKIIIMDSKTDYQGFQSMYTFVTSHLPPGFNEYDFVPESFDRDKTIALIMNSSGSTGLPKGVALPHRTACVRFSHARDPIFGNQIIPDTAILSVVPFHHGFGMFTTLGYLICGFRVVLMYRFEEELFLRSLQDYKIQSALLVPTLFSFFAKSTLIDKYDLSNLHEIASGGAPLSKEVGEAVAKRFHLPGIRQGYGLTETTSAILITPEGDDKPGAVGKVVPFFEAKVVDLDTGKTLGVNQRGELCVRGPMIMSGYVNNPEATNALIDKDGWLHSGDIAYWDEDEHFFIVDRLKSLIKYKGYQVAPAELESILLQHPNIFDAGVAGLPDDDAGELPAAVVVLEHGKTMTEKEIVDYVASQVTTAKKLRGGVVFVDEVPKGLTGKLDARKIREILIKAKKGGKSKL
Assay [8] can be described thus: Luminescence Cell-Based Dose Confirmation HTS to Identify Inhibitors of Platelet Dense Granule Release. [Related pubchem assays: 1663 (Primary HTS), 1678 (Summary of Project)]. Format: functional.
The nature of assay [9]: blockade of melanocortin 4 receptor signaling – cell-based, plate reader, cherry pick, counter-screen for LGR2 antagonist project, dose response (AID 743444).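 Also: transfected HEK 293 cells stimulated with alpha-MSH peptide; potency of inhibitors of the alpha-MSH evoked signal.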 Format: functional. (In general: A counterscreen serves to expose hits that act by an unwanted route or on another target.)
For assay [10], the target named is T3, Sentrin-specific protease 8 (Homo sapiens, UniProt Q96LD8).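 Also: luminescence read-out of SENP8 inhibition, dose-response confirmation following an ultra-high-throughput screen.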
T3 sequence (Q96LD8 whole entry): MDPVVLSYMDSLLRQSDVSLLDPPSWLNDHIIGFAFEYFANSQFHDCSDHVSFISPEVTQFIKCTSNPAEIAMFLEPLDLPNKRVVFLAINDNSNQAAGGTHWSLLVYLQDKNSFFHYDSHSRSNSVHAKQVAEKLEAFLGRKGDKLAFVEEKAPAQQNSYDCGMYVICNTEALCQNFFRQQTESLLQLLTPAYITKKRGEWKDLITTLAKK
Format: functional.

Assay [11] can be described thus: toxicity toward HepG2 liver cells – cell-based, plate reader, cherry-pick, antagonist series, cytotoxicity control, dose response (AID 743416). Format: functional.
For assay [12], the target named is T4, Sentrin-specific protease 6 (Homo sapiens, UniProt Q9GZR1).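 Also: Luminescence-based dose-response confirmatory assay of SENP6 inhibition, following up an ultra-high-throughput screen.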
T4 sequence (Q9GZR1 whole entry): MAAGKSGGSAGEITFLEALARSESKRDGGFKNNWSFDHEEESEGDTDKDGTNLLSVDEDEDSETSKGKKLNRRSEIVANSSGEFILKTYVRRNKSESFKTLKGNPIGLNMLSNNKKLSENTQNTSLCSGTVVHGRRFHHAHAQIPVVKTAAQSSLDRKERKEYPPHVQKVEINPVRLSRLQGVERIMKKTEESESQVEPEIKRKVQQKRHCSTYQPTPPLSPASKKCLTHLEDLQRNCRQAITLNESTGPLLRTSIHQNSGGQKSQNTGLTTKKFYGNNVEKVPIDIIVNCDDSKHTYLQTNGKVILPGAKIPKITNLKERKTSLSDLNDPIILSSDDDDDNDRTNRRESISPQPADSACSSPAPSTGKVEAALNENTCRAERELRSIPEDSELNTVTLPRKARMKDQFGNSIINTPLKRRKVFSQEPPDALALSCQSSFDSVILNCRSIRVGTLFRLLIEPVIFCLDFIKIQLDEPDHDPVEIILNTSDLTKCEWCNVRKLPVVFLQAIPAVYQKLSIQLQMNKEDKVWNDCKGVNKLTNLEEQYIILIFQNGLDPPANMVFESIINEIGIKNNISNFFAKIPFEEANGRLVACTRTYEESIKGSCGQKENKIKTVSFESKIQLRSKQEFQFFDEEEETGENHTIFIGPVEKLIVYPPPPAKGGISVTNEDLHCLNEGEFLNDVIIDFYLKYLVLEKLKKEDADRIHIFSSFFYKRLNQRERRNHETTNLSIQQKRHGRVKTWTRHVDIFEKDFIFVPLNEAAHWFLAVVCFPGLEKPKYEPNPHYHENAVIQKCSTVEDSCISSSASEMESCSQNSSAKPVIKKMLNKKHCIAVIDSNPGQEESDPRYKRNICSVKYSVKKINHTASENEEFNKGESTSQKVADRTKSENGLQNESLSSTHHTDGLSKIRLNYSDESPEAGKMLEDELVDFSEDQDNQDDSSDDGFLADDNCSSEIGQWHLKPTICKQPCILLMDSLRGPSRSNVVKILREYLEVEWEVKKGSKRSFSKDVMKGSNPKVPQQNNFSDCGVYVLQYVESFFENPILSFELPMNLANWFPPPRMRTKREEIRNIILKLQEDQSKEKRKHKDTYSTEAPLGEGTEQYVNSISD
In kind it is functional.

Assay [13] concerns the target T5, Sentrin-specific protease 7 (Homo sapiens, UniProt Q9BQF6).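 Also: Luminescence-based dose-response confirmation of ultra-high-throughput screening hits, measuring inhibition of SENP7.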
T5 sequence (Q9BQF6 whole entry): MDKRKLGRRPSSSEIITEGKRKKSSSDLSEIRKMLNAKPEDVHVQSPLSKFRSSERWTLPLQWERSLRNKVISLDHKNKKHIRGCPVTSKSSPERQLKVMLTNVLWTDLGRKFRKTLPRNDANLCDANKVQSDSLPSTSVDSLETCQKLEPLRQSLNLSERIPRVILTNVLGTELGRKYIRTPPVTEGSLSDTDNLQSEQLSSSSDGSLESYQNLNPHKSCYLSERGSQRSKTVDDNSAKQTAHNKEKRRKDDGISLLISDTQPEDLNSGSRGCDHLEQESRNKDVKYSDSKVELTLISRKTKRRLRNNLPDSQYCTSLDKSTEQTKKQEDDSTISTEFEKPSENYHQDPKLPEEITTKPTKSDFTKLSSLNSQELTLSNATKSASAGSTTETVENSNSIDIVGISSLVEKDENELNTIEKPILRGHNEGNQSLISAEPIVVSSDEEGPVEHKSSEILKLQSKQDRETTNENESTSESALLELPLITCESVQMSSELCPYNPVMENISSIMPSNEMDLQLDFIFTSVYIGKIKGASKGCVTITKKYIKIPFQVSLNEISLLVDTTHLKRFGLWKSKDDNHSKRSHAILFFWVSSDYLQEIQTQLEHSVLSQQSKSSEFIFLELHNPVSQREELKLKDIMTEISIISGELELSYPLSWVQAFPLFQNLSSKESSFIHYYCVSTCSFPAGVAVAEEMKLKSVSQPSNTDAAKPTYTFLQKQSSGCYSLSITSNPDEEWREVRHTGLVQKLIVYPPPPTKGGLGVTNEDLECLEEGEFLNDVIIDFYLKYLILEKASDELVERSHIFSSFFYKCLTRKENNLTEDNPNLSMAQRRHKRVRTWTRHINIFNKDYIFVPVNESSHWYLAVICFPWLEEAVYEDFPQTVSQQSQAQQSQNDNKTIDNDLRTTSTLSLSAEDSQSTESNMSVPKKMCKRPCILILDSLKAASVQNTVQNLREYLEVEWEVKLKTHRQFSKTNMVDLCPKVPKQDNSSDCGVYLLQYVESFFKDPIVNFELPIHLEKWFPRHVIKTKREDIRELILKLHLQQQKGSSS
Format: functional.

The nature of assay [14]: blockers of bursicon-stimulated LGR2 cAMP reporter – cell-based, HEK293, CRE-luciferase reporter, cherry pick, set 2, dose response (AID 743343).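 Also: transfected cells were stimulated with diluted bursicon conditioned medium after compound addition.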 In kind it is functional.
Assay [15] deals with T6, Caspase-3 (Homo sapiens, UniProt P42574).
T6 sequence (P42574 whole entry): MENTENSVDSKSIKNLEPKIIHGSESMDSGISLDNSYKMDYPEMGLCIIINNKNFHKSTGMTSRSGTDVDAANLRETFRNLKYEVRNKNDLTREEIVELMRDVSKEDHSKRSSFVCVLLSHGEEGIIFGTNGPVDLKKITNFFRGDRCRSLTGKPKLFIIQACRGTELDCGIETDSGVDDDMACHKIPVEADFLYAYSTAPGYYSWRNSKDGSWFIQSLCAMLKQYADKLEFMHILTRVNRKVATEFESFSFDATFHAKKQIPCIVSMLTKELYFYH
Format: functional.

Assay [16] in a line: A549 cell cytotoxicity, dose response, cytotoxicity control, plate reader, cherry-pick, antagonist series (AID 743412). In kind it is functional, cell-based.
The target of assay [17] is Induced myeloid leukemia cell differentiation protein Mcl-1 (Homo sapiens, UniProt Q07820). Format: functional.
Sequence of Induced myeloid leukemia cell differentiation protein Mcl-1 (Q07820 whole entry): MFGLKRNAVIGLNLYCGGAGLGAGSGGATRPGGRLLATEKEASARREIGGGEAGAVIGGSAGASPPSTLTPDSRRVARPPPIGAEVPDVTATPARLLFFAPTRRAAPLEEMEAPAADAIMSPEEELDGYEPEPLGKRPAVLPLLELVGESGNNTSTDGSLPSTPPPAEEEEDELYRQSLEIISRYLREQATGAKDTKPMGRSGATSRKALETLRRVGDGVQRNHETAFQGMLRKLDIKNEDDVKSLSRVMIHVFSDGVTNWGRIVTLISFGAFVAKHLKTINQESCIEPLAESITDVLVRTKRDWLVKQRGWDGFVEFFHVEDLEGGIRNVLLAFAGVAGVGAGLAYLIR
The nature of assay [18]: Trypanosoma cruzi growth suppression in host cells – NIH3T3 host cells, beta-gal luminescence, confirmation (AID 2044).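 Also: intracellular parasites grown in NIH/3T3 mouse fibroblasts as host cells; luminescent beta-galactosidase reporter signal from transgenic T. cruzi replicating inside host cells; inhibitors lower the luminescence signal.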 In kind it is functional, cell-based.
Assay [19] is described as follows: NIH3T3 cell viability loss – ATP luminescence, mouse fibroblasts, counter-screen, dose response (AID 2010).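 Also: cells exposed to compound for about 90 hours before reading.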 In kind it is functional, cell-based.

Active and inactive are the calls of the source.

For the compound `O=C(c1ccc([N+](=O)[O-])s1)N1CCN(c2cccc(Cl)c2)CC1`, in [1], the EC50 is > 195 µM (not active). In assay [2], the CC50 was 35.6 µM (active). Moreover, the AC50 in assay [3] is 7.83 µM (active). In addition, the IC50 in [4] was 1.11 µM (active).
In the case of `O=C(NC1CCCCCC1)c1cc2c(=O)n3ccccc3nc2s1`, the EC50 in assay [5] is > 69.5 µM (inactive).
In the case of `O=C(O)c1ccc(/C=N/NC(=O)c2cc(-c3cccs3)nc3ccccc23)cc1`, the EC50 in assay [5] is 49.6 µM (inactive).
`CCCCN1C(=O)/C(=N\c2cccc3cnccc23)c2ccccc21`: in [6], the half-inhibitory concentration (IC50) is given as > 50 µM (not active). For the same compound, the half-maximal effective concentration (EC50) in [7] and in assay [8] was > 112 µM (not active) each time.
Take `COCCn1c(C)cc(C(=O)CSc2nc3ccccc3s2)c1C`: the half-maximal activity concentration (AC50) in [9] is 6.46 µM (active); in assay [11], 41.8 µM (active); in assay [14], 3.81 µM (active). The IC50 in assay [10] was 83.7 µM (active); in [12] it was 27.4 µM (active); in assay [13] it was 8.92 µM (active); in assay [15], 26.4 µM (active).
On to `O=C(Nc1nc2ccccc2[nH]1)c1ccc(Cl)cc1`, for which the half-maximal activity concentration (AC50) was 6.33 µM (active) in [9], 29.1 µM (active) in assay [16], 29.5 µM (active) in assay [11] and 10.1 µM (active) in [14].
Turning to `CCC/C(=N\NC(=O)c1ccco1)c1ccc(Cl)s1`, in assay [2], the CC50 was > 40 µM (active). For the same compound, the 50% inhibitory concentration (IC50) in assay [4] is 13.9 µM (active).
Turning to `O=C(Nc1ccc2nc3ccccc3nc2c1)c1ccccc1`, in [17], the IC50 is > 54 µM (active). In addition, the EC50 in [5] was > 69.5 µM (inactive).
Regarding `CCc1cccc(OCCCn2ccnc2)c1`, the CC50 in [2] was > 40 µM (active).
For the compound `CCc1cc(N2CCOCC2)cc2c1[nH]c1ccccc12`, the IC50 in [6] was > 50 µM (not active).
As to `COC(=O)COc1cccc(NC(=O)COc2ccccc2)c1`, the cytotoxic concentration (CC50) in [2] is > 40 µM (active). Besides, the half-inhibitory concentration (IC50) in [4] is 1.65 µM (active).
Take `COCCN(CCOC)c1cc(C)c(C#N)c2nc3ccccc3n12`: the EC50 in assay [5] was 11.2 µM (inactive).
With `Cc1cccc(-n2c(SCC(=O)N3CCCC3)nc3nnc(C)c-3c2N)c1`, the EC50 in assay [5] was 13.3 µM (inactive).
For `COC(=O)C1=CNC=C(C(=O)OC)C1c1ccc(C(=O)OC)cc1`, in [5], the EC50 was > 69.5 µM (inactive).
Turning to `O=C(Nc1ccc2c(c1)C(=O)NC2=O)c1ccc(S(=O)(=O)N2CCCC2)cc1`, the concentration for a half-maximal effect (EC50) in assay [5] is 8.55 µM (active).
As to `CC(=O)c1ccc(Nc2nc(-c3sc(C)nc3C)cs2)cc1`, the AC50 in assay [9] is 34 µM (active); in [16] it was 2.08 µM (active); in assay [11] it was 2.87 µM (active); in [14], 21.8 µM (active).
Regarding `CC(C)(C)C1=CC(=O)C(=O)C(C(C)(C)C)=C1`, in assay [6], the half-inhibitory concentration (IC50) is 9.84 µM (active). Besides, the half-maximal effective concentration (EC50) in assay [18] was 0.62 µM (active); in assay [19] it was 7.34 µM (active).

In general, EC50 refers to the midpoint of the concentration-response curve. As a reminder, the CC50 is the concentration giving 50% cytotoxicity. As usually defined, the AC50 is the midpoint of the concentration-response curve, whichever way the signal moves. As a reminder, the IC50 is the concentration at which inhibition is half-maximal.
